Laboratory results reported in patent US4717713A, “Controlled release liquid pharmaceutical” (Research Corporation, priority 1983, dated 1988).

Test: In vitro dissolution of theophylline from solutions/suspensions (U.S.P. paddle, simulated gastric fluid, 37° C.)
Format: physicochemical
Settings: Table II; 50 R.P.M.; no polymers present
Procedure: Standard U.S.P. Teflon coated stainless steel paddles and round bottom glass beakers were employed. The desired stirrer speed was maintained by commercial feedback control circuitry (50 RPM is illustrated by way of example). The dissolution medium was 1000 ml of Simulated Gastric Fluid U.S.P. without enzyme in most cases, kept at 37° C. by a water bath with a heat/circulator unit.
Suspension was placed into the filled beaker near the surface by 0.27 cm inner radius glass tube attached by plastic tubing to a three ml disposable syringe. Two ml of suspension was pulled up into the tube, the exterior wiped clean, one ml was extruded into the dissolution medium beneath the surface, and the suspension separated from the glass tube by cutting with a razor blade. The technique produced uniform cylindrical matrices in most cases.
In all cases, the total amount of drug released into the dissolution medium was less than ten percent of that needed to saturate the medium, so that sink conditions were maintained.
A precise volume was withdrawn near the top of the dissolution medium for each sample. The volume ranged from 0.1 ml to 3.0 ml. […]
Standard curves were concentrated for theophylline in simulated gastric fluid USP. Samples were diluted to read within the linear concentration range and absorbance was read at 272 nm using a single beam spectrophotometer.

Cn1c(=O)c2[nH]cnc2n(C)c1=O [Theophylline Powder, theophylline]
T 50% (time for 50% theophylline to dissolve): < 5 min
